Test results as given in patent publication US5858687A (priority 1995, dated 1999).
“Also recorded” adds a separate entry of the source.

What was measured:
[1] = system: human melanoma cells; format: cell-based
[2] = system: human colon carcinoma HT-29 cells; format: cell-based

In the case of `C=C(C=O)C[C@@H]1C[C@H](O)[C@]2(C)O[C@@H]3C[C@@H]4O[C@@H]5C[C@]6(C)O[C@]7(C)CC[C@@H]8O[C@@H]9C[C@]%10(C)O[C@@H]%11C(C)=CC(=O)O[C@H]%11C[C@H]%10O[C@H]9C[C@@H](C)[C@H]8O[C@H]7C[C@H]6O[C@H]5C/C=C\[C@H]4O[C@H]3C[C@H]2O1` [brevetoxin], the “response in the presence of ouabain and veratridine” value [1] is reported as “does not respond; also recorded: lack of response” and the “response in the presence of ouabain and veratridine” value [2] is reported as “lack of response”.
